According to patent US11969419B2, “Method of treating cancer” (Exelixis, Inc., priority 2010, dated 2024):

Columns and labels:
endothelial cells = conditions: cited from earlier work
[1] = phase 1 clinical study; cited from earlier work
[2] = system: pancreatic neuroendocrine tumor model; conditions: murine pancreatic neuroendocrine tumor model; cited from earlier work
xenograft tumor models = conditions: cited from earlier work
[3] = system: castration-resistant prostate cancer (CRPC) with bone metastases; assay: Adaptive phase 2 trial (NCT00940225), case studies of the first three CRPC patients with bone metastases, Compound 1 100 mg; format: in vivo, human; conditions: for Bone scan (best response) / Pain (best response): preliminary best response
Description: In 2000, local disease recurrence was treated with radiation therapy. […] CAB with leuprolide and bicalutanide was initiated. […] All patients provided informed consent before study screening.

tumor cells = conditions: cited from earlier work
[4] = three metastatic CRPC patients, summary

COc1cc2nccc(Oc3ccc(NC(=O)C4(C(=O)Nc5ccc(F)cc5)CC4)cc3)c2cc1OC [Compound 1, N-(4-{[6,7-bis(methyloxy)quinolin-4-yl]oxy}phenyl)-N′-(4-fluorophenyl)cyclopropane-1,1-dicarboxamide]
Apoptosis of endothelial cells (endothelial cells): rapidly induces apoptosis
Most commonly observed adverse events [1]: fatigue, diarrhea, anorexia, rash, and palmar-plantar erythrodysesthesia
Tolerability [1]: generally well-tolerated
Overall survival [2]: substantially improves
Tumor invasiveness and metastasis [2]: significantly reduces
Tumor regression (xenograft tumor models): causes tumor regression
Bone scan: radiotracer uptake by bone metastases ([3]; Patient 1, Week 6): dramatic decrease in radiotracer uptake
CT scan response category ([3]; Patient 1, Week 6): partial response (PR)
CT scan: decrease in measurable target lesions ([3]; Patient 1, Week 6): 33%
Bone lesions on bone scan ([3]; Patient 1, Week 12, stable through Week 18): near complete resolution of bone lesions
Adverse event leading to withdrawal ([3]; Patient 1, Week 18): Grade 3 diarrhea
Bone pain ([3]; Patient 1, four weeks after start): significant reduction in bone pain
Bone scan (best response) ([3]; Patient 1): Complete resolution
Pain (best response) ([3]; Patient 1): Improvement
Bone pain ([3]; Patient 2, Week 4): reduction in bone pain
Bone scan: radiotracer uptake by bone lesions ([3]; Patient 2, Week 6): slight flair in radiotracer uptake
CT scan: decrease in target lesions ([3]; Patient 2, Week 6): 13%
Bone scan: radiotracer uptake ([3]; Patient 2, Week 12): substantial reduction of radiotracer uptake
Bone scan (best response) ([3]; Patient 2): Improvement
Pain (best response) ([3]; Patient 2): Pain-free
Bone scan: radiotracer uptake ([3]; Patient 3, Week 6): dramatic reduction in radiotracer uptake
CT scan: decrease in measurable target lesions ([3]; Patient 3, Week 6): 43%
Bone lesions on bone scan ([3]; Patient 3, Week 12): complete resolution of bone lesions
Pain ([3]; Patient 3, after three weeks): complete resolution of pain
Bone scan (best response) ([3]; Patient 3): Near resolution
Pain (best response) ([3]; Patient 3): Pain-free
Bone pain ([3]; all three patients, discussion): substantial reductions in bone pain
Soft tissue lesions ([3]; all three patients, discussion): response or stabilization
Uptake of radiotracer on bone scan ([3]; all three patients, discussion): striking decrease
Bone lesions [3, 4]: near complete resolution of bone lesions
Bone pain [3, 4]: marked reduction
Measurable disease [3, 4]: reduction in measurable disease
Total serum alkaline phosphatase (tALP) levels [3, 4]: marked reduction
Apoptosis of tumor cells (tumor cells): rapidly induces apoptosis
